Data reported in patent US10837005B2, “Recombinant microorganism capable of producing methyl anthranilate and method of producing methyl anthranilate using the same” (priority 2019, dated 2020).

Key:
[1] = Partition coefficient between aqueous-phase culture medium and organic-phase tributyrin; assay type: physicochemical; settings: aqueous phase: Carbon-free MR minimum medium, organic phase tributyrin
Experimental: In order to solve the problem of toxicity of MANT, a two-phase aqueous organic culture system was used in the present invention (FIG. 5 in part a). Tributyrin was used as an organic solvent to extract MANT from the culture medium. Tributyrin extraction capacity was determined by measuring the partition coefficient between the aqueous medium of MANT and tributyrin, the solvent, and the result is shown in Table 2. Tributyrin is also capable of extracting ANT, but the amount of ANT extracted is very small compared to the amount of MANT and thus is negligible. […] The culture was carried out under the same conditions as in Example 1-2, except that, when IPTG was added, 10 mL of tributyrin was added therewith. MANT productivity was calculated on an aqueous phase basis (that is, Titer=Caq·Vaq+Corg·Vorg)/Vaq)).

[2] = test system: Pseudomonas putida KT2440
E. coli = assay: MANT toxicity test on E. coli; assay type: cell-based
Experimental: […]. The low resistance of E. coli to MANT could adversely affect E. coli mutations that produce MANT at high concentrations. Thus, E. coli was cultured in a modified culture system.

| Structure (SMILES) | Partition coefficient ([1]; pH 5.0) | Partition coefficient ([1]; pH 7.0) | Partition coefficient ([1]; pH 9.0) | MANT concentration at which growth was completely inhibited (C. glutamicum ATCC 13032; C. glutamicum) [g/L] | growth profile (C. glutamicum ATCC 13032; C. glutamicum ATCC 13032, various MANT concentrations) | MANT concentration at which strain was not capable of growing ([2]; P. putida KT2440) [g/L] | growth profile ([2]; P. putida KT2440, various MANT concentrations) | MANT concentration E. coli can withstand (E. coli) | final OD600 value (E. coli; E. coli exposed to various concentrations of MANT up to 1 g/L) | final OD600 value relative to base strain not exposed to MANT (E. coli; exposed to 0.5 g/L of MANT) |
| --- | --- | --- | --- | --- | --- | --- | --- | --- | --- | --- |
| Nc1ccccc1C(=O)O [Anthranilate, anthranilic acid] | 4.7 ± 0.2 | 0.1 ± 0.0 | Very low | – | – | – | – | – | – | – |
| COC(=O)c1ccccc1N [MANT, Methyl anthranilate] | – | 420.1 ± 7.6 | – | 2.0 | concentration-dependent inhibition | 1.0 | concentration-dependent inhibition | up to 0.5 g/L | significantly reduced | about one third |
